Assay [1] has as its system pBR322 plasmid DNA. Description: Agarose gel electrophoresis, DNA cleavage. It counts as biochemical. In a few lines:
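pBR322 plasmid (15 µM base pairs) incubated 1 h at 37 °C with 10 and 50 μM complexes, with or without 50 μM ascorbic acid and 500 µM H2O2. Cleavage into supercoiled, nicked and linear forms resolved on 1.5% agarose in 1× TBE at 100 V for 1 h, SYBR Safe-stained.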

Assay [2] concerns ct-DNA. The assay can be described thus: Competitive displacement of ethidium bromide from DNA (fluorescence). It counts as binding, calf. The conditions noted are these: EB 75 µM, [DNA]b = 30 µM, compound 0-50 µM, 1 h. Here is the method: For the UV–Vis, fluorescence and circular dichroism assays the concentration of ct-DNA was determined on a Varian Cary 100 Scan spectrophotometer from the absorption at 260 nm and the corresponding molar absorptivity of 6600 M^−1 cm^−1 (nucleobase concentration). The stock solutions of the coordination compounds and the free ligands were prepared in cacodylate/NaCl buffer (1 mM cacodylic acid and 20 mM sodium chloride) at pH 7.25. The final samples contained a DMSO concentration of 0.2%.
Emission intensity of the dyes DNA-intercalator ethidium bromide, EB (λexc = 514 nm) and the minor-groove binder Hoechst 33,258 (λexc = 350 nm) was measured on iHR320 HORIBA JOBIN YVON spectrofluorometer. The samples contained 15 µM (in base pairs) of ct-DNA and 75 µM of EB […] in cacodylate/NaCl buffer. The respective dye was incubated for 30 min with ct-DNA to allow its binding to the biomolecule. Subsequently, increasing amounts of coordination compounds (0–50 µM) were added up to a final volume of 2 mL, and the samples were incubated for 1 h at 37 °C. The fluorescence spectra of all samples were recorded at room temperature. The affinity of the compounds for ct-DNA compared to EB was evaluated through the Stern–Volmer quenching constant Ksv, from Eq. 3:3 I0/I=1+Ksvcompound where I0 and I are the emission intensities in absence and the presence of the compound, respectively.
With the aim to corroborate the binding mode of the coordination compounds with DNA competitive displacement assays were carried out by florescence spectroscopy. The fluorescence of ethidium bromide (EB) increases when it intercalates between DNA base pairs, forming an EB-DNA adduct. Competitive binding assays will lead to a decrease of the fluorescence intensity (λexc = 514 nm; λem = 610 nm) if the interacting molecule is capable of displacing EB from the DNA helix. Solutions containing constant concentrations of DNA (30 µM) and EB (75 µM) were incubated for 30 min. Then the coordination compounds to be tested were added in a concentration in the range of 0–50 µM (corresponding to [complex]/[DNA] ratios between = 0 and 3.3), and fluorescence spectra were recorded after 1 h of incubation.

The subject of assay [3] is RH tachyzoites of Toxoplasma gondii. The assay can be described thus: Viability of extracellular tachyzoites, Sytox Green exclusion test. The class given is cell-based.
Assay [4] deals with mouse fibroblast L929 cells. Description: Cytotoxic activity in healthy host cells. It counts as cell-based. As for the experimental part: The IC50 values obtained for [Cu(onz)2Cl2] (210.2 μM) and [Cu(onz)2Br2]
The mark [5] stands for this setting: compound 10 (mM in the source), + H2Asc.
Where [6] appears, read: compound 10 (mM in the source), no additive.
Where [7] appears, read: compound 50 (mM in the source), no additive.

Molecules are shown by their SMILES. Read-outs that look alike come from different tables or passages of the source.

The text below walks through data of article PMC11001709, “Anti-toxoplasma activity and DNA-binding of copper(II) and zinc(II) coordination compounds with 5-nitroimidazole-based ligands” (Journal of Biological Inorganic Chemistry, 2023).

A word on the IC50: it is the midpoint of a concentration-inhibition curve. On to `Cc1n(CC(O)CCl)c([N+](=O)[O-])c[n+]1[Cu-2]([Br])([Br])[n+]1cc([N+](=O)[O-])n(CC(O)CCl)c1C` (centres unmarked) [[Cu(onz)2Br2]], for which the “%Damage” value in assay [1] (setting [5]) is on record as 44.70%; in assay [1] (compound 10 (mM in the source), + H2Asc + H2O2) it was 100.00%; in assay [1] (compound 10 (mM in the source), + H2O2), 100.00%; in assay [1] (setting [6]) it was 7.80%; in assay [1] (compound 50 (mM in the source), + H2Asc), 100.00%; in assay [1] (compound 50 (mM in the source), + H2Asc + H2O2), 100.00%. The “%Damage” value in assay [1] (compound 50 (mM in the source), + H2O2) came to 100.00%; in assay [1] (setting [7]), 6.70%. Besides, the “%Nicked” value turned out to be 35.60% in assay [1] (setting [5]) and 23.00% in assay [1] (setting [7]). Besides, the “%Supercoiled” value in assay [1] (setting [5]) was determined as 55.30%; in assay [1] (setting [6]), 92.20%; in assay [1] (setting [7]), 93.30%. Also, in assay [2], the “Ethidium bromide Ksv” value is 43000 M⁻¹. In addition, the IC50 was determined as 2.73 ± 0.34 µM in assay [3] (1 h, PBS pH 7.4, mean ± standard error of three replicates, read-out: IC50); 2.73 µM in assay [3] (viability vs concentration, read-out: IC50 (Boltzman Fit, Fig. S6)); 180 µM in assay [4].
